Where a SMILES comes first, the peptide text is derived from it. [ ]: non-standard residue; d: D form. The star is where a group is joined. SeMet = C[Se]CC[C@H](N)C(=O)O; X1 = O=C(C[Se]c1ccccc1)*; Ahx = NCCCCCC(=O)O
How the values were obtained:
Vasopressin V1a receptor [1] = target: T1, Vasopressin V1a receptor (Homo sapiens, UniProt P37288); assay: Displacement of [125I]OH-Phpa-LVA from human V1A receptor expressed in CHO cells after 4 hrs by gamma counter analysis; assay type: cell-based
Target sequence in this assay (P37288 whole entry): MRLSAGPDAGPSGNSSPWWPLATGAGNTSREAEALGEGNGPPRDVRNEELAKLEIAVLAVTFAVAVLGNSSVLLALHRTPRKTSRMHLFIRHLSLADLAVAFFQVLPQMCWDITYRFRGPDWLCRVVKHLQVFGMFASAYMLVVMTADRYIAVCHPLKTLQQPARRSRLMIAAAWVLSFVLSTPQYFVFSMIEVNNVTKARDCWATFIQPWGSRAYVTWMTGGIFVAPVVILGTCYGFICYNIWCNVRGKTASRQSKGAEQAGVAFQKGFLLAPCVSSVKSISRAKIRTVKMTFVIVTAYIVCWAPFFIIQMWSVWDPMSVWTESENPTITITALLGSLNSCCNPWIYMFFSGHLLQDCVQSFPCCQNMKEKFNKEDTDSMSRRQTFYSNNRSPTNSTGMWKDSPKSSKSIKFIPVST

Vasopressin V1a receptor [2] = target: T1, Vasopressin V1a receptor; assay: Binding affinity to human V1A receptor expressed in CHO cells assessed per million cells after 4 hrs by RP-LC-ICPMS analysis; assay type: cell-based
Target sequence in this assay (P37288 whole entry, looked up): as the sequence (P37288 whole entry) above

Vasopressin V1a receptor [3] = target: T1, Vasopressin V1a receptor; assay: Displacement of [Se-Se]-AVP from human V1A receptor expressed in CHO cells after 4 hrs by RP-LC-ICPMS analysis; assay type: cell-based
Target sequence in this assay (P37288 whole entry): as above

Vasopressin V1a receptor [4] = target: T1, Vasopressin V1a receptor; assay: Displacement of [Sez6]-HO-Phpa-LVA from human V1A receptor expressed in CHO cells after 4 hrs by RP-LC-ICPMS analysis; assay type: cell-based
Target sequence in this assay (P37288 whole entry): as above

Vasopressin V1a receptor [5] = target: T1, Vasopressin V1a receptor; assay: Binding affinity to human V1A receptor expressed in CHO cells after 4 hrs by RP-LC-ICPMS analysis; assay type: cell-based
Target sequence in this assay (P37288 whole entry): as above

Vasopressin V1a receptor [6] = target: T1, Vasopressin V1a receptor; assay: Binding affinity to human V1A receptor expressed in CHO cell membranes
Target sequence in this assay (P37288 whole entry): as above

[7] = target: T2, Gastrin/cholecystokinin type B receptor (Homo sapiens, UniProt P32239); assay: Displacement of non-sulfated CCK-8 from CCKB receptor (unknown origin) expressed in HEK cells after 4 hrs by RP-LC-ICPMS analysis; assay type: cell-based
T2 sequence (P32239 whole entry): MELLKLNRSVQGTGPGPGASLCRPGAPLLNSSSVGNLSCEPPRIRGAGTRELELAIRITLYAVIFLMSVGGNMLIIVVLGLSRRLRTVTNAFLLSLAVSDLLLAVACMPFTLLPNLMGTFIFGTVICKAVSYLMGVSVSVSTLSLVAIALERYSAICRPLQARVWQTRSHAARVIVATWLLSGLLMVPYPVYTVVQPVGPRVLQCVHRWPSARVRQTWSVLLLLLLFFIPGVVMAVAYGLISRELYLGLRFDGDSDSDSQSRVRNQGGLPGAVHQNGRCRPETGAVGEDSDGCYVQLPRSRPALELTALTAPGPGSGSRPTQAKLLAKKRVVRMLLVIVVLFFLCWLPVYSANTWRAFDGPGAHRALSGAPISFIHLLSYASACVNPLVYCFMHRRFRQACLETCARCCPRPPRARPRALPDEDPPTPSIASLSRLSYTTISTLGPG

[8] = target: T2, Gastrin/cholecystokinin type B receptor; assay: Binding affinity to CCKB receptor (unknown origin) expressed in HEK cells after 4 hrs by RP-LC-ICPMS analysis; assay type: cell-based
Vasopressin V1a receptor [9] = target: T1, Vasopressin V1a receptor; assay: Displacement of [Ph-Se-acetyl]-LVA from human V1A receptor expressed in CHO cells after 4 hrs by RP-LC-ICPMS analysis; assay type: cell-based
Target sequence in this assay (P37288 whole entry): as the sequence (P37288 whole entry) above

Ki (Vasopressin V1a receptor [1])	Bmax (Vasopressin V1a receptor [2])	Ki (Vasopressin V1a receptor [3])	SMILES	other results
0.8 nM		0.2 nM	COc1ccc(C[C@@H](NC(=O)CCc2ccc(O)cc2)C(=O)N[C@@H](Cc2ccccc2)C(=O)N[C@@H](CCC(N)=O)C(=O)N[C@@H](CC(N)=O)C(=O)N[C@@H](CCCNC(=N)N)C(=O)N2CCC[C@H]2C(=O)N[C@@H](CCCNC(=N)N)C(N)=O)cc1	
304 nM		2950 nM	CCOc1ccc2c(c1)[C@]1(CC[C@H](OCCN3CCOCC3)CC1)C(=O)N2S(=O)(=O)c1ccc(C(=O)NC(C)(C)C)cc1OC	

Continued, compound first:

SMILES	Ki (Vasopressin V1a receptor [1])	Bmax (Vasopressin V1a receptor [2])	Ki (Vasopressin V1a receptor [3])	other results
COc1ccc(C[C@@H](NC(=O)CCc2ccc(O)cc2)C(=O)N[C@@H](Cc2ccccc2)C(=O)N[C@@H](CCC(N)=O)C(=O)N[C@@H](CC(N)=O)C(=O)N[C@@H](CCCNC(=N)N)C(=O)N2C[Se]C[C@H]2C(=O)N[C@@H](CCCNC(=N)N)C(N)=O)cc1	0.9 nM	845 fmol	0.4 nM	Ki (Vasopressin V1a receptor [4]): 3.8 nM; Kd (Vasopressin V1a receptor [5]): 0.45 nM
N=C(N)NCCC[C@H](NC(=O)[C@@H]1CCCN1C(=O)[C@@H]1C[Se][Se]C[C@H](N)C(=O)N[C@@H](Cc2ccc(O)cc2)C(=O)N[C@@H](Cc2ccccc2)C(=O)N[C@@H](CCC(N)=O)C(=O)N[C@@H](CC(N)=O)C(=O)N1)C(=O)NCC(N)=O	0.7 nM		1.7 nM	Kd (Vasopressin V1a receptor [6]): 0.6 to 3 nM
N=C(N)NCCC[C@@H](NC(=O)[C@@H]1CCCN1C(=O)[C@@H]1C[Se][Se]C[C@H](N)C(=O)N[C@@H](Cc2ccc(O)cc2)C(=O)N[C@@H](Cc2ccccc2)C(=O)N[C@@H](CCC(N)=O)C(=O)N[C@@H](CC(N)=O)C(=O)N1)C(=O)NCC(N)=O		1060 fmol		
CSCC[C@H](NC(=O)[C@H](Cc1c[nH]c2ccccc12)NC(=O)CCCCCNC(=O)[C@H](CCCNC(=N)N)NC(=O)C[Se]c1ccccc1)C(=O)N[C@@H](CC(=O)O)C(=O)N[C@@H](Cc1ccccc1)C(N)=O (X1-R[Ahx]WMDF-NH2)				Ki [7]: 7.93 nM; Kd [8]: 29.3 nM
CSCC[C@H](NC(=O)[C@H](Cc1c[nH]c2ccccc12)NC(=O)CCCCCNC(=O)[C@H](CCCNC(=N)N)NC(=O)[C@H](CC[Se]C)NC(C)=O)C(=O)N[C@@H](CC(=O)O)C(=O)N[C@@H](Cc1ccccc1)C(N)=O (Ac-[SeMet]R[Ahx]WMDF-NH2)				Ki [7]: 3.91 nM; Kd [8]: 45.5 nM
COc1ccc(C[C@@H](NC(=O)C[Se]c2ccc(O)cc2)C(=O)N[C@@H](Cc2ccccc2)C(=O)N[C@@H](CCC(N)=O)C(=O)N[C@@H](CC(N)=O)C(=O)N[C@@H](CCCNC(=N)N)C(=O)N2CCC[C@H]2C(=O)N[C@@H](CCCNC(=N)N)C(N)=O)cc1	0.9 nM	696 fmol		Kd (Vasopressin V1a receptor [5]): 0.32 nM; Ki (Vasopressin V1a receptor [9]): 12.9 nM
N=C(N)NCCC[C@H](NC(=O)[C@@H]1CCCN1C(=O)[C@@H]1C[Se]C[C@H](N)C(=O)N[C@@H](Cc2ccc(O)cc2)C(=O)N[C@@H](Cc2ccccc2)C(=O)N[C@@H](CCC(N)=O)C(=O)N[C@@H](CC(N)=O)C(=O)N1)C(=O)NCC(N)=O	1280 nM			
